According to patent US20090233938A1, “Thiazole derivatives as a2b antagonists” (priority 2004, published 2009):

Key:
[1] = target: T1, human adenosine A2b receptor (Homo sapiens, UniProt P29275); experiment: Adenosine A2b receptor reporter gene assay (luciferase, CHO-A2b cells, NECA agonist); type: cell-based; details: CHO cells with pCRE-LUCI and human A2b receptor; antagonist at 100 nM or 1 μM; shift of NECA concentration-response curve; KB=[antagonist]/(concentration ratio−1)
T1 construct: expressed in transfected cells; host or cells: CHO cells co-transfected with reporter plasmid pCRE-LUCI and pA2bRCV
T1 sequence (P29275 1-332): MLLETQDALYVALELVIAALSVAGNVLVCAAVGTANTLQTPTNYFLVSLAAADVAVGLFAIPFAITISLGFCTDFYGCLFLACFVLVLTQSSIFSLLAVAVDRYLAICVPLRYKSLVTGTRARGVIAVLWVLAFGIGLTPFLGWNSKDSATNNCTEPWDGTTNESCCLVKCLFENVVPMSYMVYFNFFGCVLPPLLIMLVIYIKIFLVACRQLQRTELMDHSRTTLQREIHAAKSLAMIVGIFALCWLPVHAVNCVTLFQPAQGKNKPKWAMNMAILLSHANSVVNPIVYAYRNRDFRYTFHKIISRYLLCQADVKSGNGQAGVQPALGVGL
Description: Adenosine A2b Receptor Reporter Gene Assay a) Culturing of Chinese Hamster Ovary (CHO) A2b Cell Line
CHO cells transfected with a Luciferase-expressing reporter plasmid (pCRE-LUCI) and with a plasmid carrying the human adenosine A2b receptor structural gene (pA2bRCV) are routinely cultured in Dulbecco's Modified Eagle Medium (DMEM)—supplemented with 10% v/v fetal calf serum (FCS), 2 mM L-glutamine, 0.4 mg/ml L-proline, 1 nM sodium selenite, 0.5 mg/ml Hygromycin B and 1 mg/ml Geneticin—at 37° C., 5% CO2 and 100% humidity. The cells are left to grow to confluence for 4-5 days. The cells obtained are passaged using trypsin/EDTA and split at a ratio of 1 in 5. […]
b) Preparation of Cells for Assay
Prior to the assay, the CHO-A2b cells are plated onto white 96-well View Plate tissue culture plates (Packard) at a density of 50,000 cells per well in 50 μl of DMEM, and the plates are incubated at 37° C., 5% CO2 and 100% humidity. […]
c) Preparation of Reference and Test Compounds
10 mM solutions of the reference compound, Xanthine Amine Cogener (XAC), and the test compound in dimethyl sulfoxide (DMSO) are prepared. The solutions are further diluted with DMSO to 100 μM, then diluted to 10 μM, and finally to 250 nM or 2.5 μM with Assay Buffer (DMEM Phenol Red-free tissue culture media supplemented with 10 μM Rolipram and 10 U/ml adenosine deaminase (ADA). The resulting solutions (40 μl) are added to the cells in the appropriate wells, the final concentration per well being 100 nM or 1 μM, and the plates are incubated at 37° C., 5% CO2 and 100% humidity. […]
d) Luciferase Reporter Gene Assay
5′-N-ethylcarboxamidoadenosine (NECA), an adenosine A2b agonist, is prepared as a […] solution in DMSO and then diluted to 100 μM with Assay Buffer. This solution is serially diluted in Assay Buffer to give a series of 10 NECA concentrations from 100 to 0.01 μM. 10 μl portions of the resulting NECA solutions are added to the mixtures of CHO-A2b cells and reference or test compound solutions prepared as described above (preincubated for 30 minutes), final concentrations ranging from […] per well. The cells are incubated at 37° C., 5% CO2 and 100% humidity for 3 hours to induce release of cAMP, which then binds to cAMP binding protein (CBP) and the resulting complex interacts with the reporter plasmid to express Luciferase. 100 μl of Steady-Glo, a Luciferase assay substrate from Promega, is added to all wells to lyse the cells and generate luminescence in proportion to the amount of Lucifrease produced. The plates are left for a minimum of 5 minutes before being read on the luminescence program of a Topcount NXT microplate scintillation counter (ex Packard). Concentration—response curves are plotted from the luminescence data using Activity base software and KB values for the antagonists under test are calculated from the shifts of the curve at a particular concentration (KB=[antagonist]/(concentration ratio−1)

Row | Compound | melting point [°C] | Kb [1] [nM]
1 | N#Cc1cccc(-c2nc(Nc3ccc(C(=O)O)cc3)sc2-c2ccnnc2)c1 [Example 15, 4-[4-(3-Cyano-phenyl)-5-pyridazin-4-yl-thiazol-2-ylamino]-benzoic acid] | > 275 | 
2 | COc1cccc(C(=O)Nc2nc(-c3cccc(C#N)c3)c(-c3ccncn3)s2)c1 [Example 11, N-[4-(3-Cyano-phenyl)-5-pyrimidin-4-yl-thiazol-2-yl]-3-methoxy-benzamide] | 255 to 256 | 
3 | CN(C)c1cc(-c2sc(Nc3cccc(F)c3)nc2-c2cccc(C#N)c2)cnn1 [Example 16] |  | 50

Results, then the molecule that gave them:

Row | melting point [°C] | Kb [1] [nM] | Compound
4 |  | 29 | N#Cc1cccc(Nc2nc(-c3cccc(C#N)c3)c(-c3ccncn3)s2)c1 [Example 6]
5 |  | 6 | N#Cc1cccc(-c2nc(Nc3ccccn3)sc2-c2ccncn2)c1 [Example 9]
6 |  | 38 | Cc1ccnc(Nc2nc(-c3cccc(C#N)c3)c(-c3ccncn3)s2)c1 [Example 4]
7 | > 280 | 2 | N#Cc1cccc(-c2nc(Nc3cnccn3)sc2-c2ccncn2)c1 [Example 12, 3-[2-(Pyrazin-2-ylamino)-5-pyrimidin-4-yl-thiazol-4-yl]-benzonitrile]
